Here are results for 8 compounds from patent publication US8536354B2, “Steroidal ligands and their use in gene switch modulation” (Intrexon Corporation, priority 2008, dated 2013).

Read-outs that look alike come from different tables or passages of the source.

Experiment [1] deals with T1, wild-type CfEcR (GAL4-CfEcR-DEF with VP16-RXR-USP chimera) (Choristoneura fumiferana, UniProt O77255).
T1 sequence (O77255 219-541): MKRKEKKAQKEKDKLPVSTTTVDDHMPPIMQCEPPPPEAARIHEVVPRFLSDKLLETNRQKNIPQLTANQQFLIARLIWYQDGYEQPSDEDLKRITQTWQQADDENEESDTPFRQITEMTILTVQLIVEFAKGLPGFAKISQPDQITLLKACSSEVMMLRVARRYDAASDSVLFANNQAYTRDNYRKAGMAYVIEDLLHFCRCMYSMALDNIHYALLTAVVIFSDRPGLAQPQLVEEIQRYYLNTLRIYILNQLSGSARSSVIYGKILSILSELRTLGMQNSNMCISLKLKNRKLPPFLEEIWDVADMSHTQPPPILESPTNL
T1 sequence (P28702 1-533 partner): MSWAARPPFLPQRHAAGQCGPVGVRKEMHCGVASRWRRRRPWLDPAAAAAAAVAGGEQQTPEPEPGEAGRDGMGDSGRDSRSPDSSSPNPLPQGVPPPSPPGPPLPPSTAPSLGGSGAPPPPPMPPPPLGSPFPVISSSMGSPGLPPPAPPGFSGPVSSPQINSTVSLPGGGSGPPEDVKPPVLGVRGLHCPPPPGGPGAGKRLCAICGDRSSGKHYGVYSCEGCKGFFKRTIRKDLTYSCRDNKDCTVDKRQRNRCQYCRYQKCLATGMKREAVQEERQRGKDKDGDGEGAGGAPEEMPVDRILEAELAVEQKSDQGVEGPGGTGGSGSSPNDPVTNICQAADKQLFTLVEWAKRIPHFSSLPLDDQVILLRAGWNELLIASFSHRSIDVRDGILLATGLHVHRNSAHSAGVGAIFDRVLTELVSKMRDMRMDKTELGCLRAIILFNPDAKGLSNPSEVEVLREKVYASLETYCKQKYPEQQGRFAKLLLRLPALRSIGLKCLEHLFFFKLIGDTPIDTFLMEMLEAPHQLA
The experiment in a line: Two-hybrid gene switch assay, luciferase reporter, wild-type CfEcR, mouse NIH3T3 cells.

Experiment [2] concerns the target T2, BaEcR (GAL4-EcR DEF with VP16-RXR-USP chimera) (Bemisia tabaci, UniProt A0A6M3RDR8).
T2 sequence (A0A6M3RDR8 115-530): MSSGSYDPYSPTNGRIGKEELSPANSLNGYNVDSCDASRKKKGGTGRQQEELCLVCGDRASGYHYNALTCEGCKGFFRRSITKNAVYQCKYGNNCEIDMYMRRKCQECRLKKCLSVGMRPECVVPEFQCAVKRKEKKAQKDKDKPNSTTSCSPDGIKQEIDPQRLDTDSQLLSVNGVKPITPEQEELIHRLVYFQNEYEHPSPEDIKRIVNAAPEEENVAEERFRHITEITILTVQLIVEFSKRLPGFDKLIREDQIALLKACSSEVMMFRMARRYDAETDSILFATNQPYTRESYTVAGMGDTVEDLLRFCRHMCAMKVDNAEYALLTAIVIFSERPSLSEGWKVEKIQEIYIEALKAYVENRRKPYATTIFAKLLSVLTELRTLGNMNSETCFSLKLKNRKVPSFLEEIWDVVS
T2 sequence (P28702 1-533 partner): T1 sequence (P28702 1-533 partner)
The experiment in a line: Two-hybrid gene switch assay, luciferase reporter, BaEcR, mouse NIH3T3 cells.

The target in experiment [3] is wild-type Aedes aegypti EcR (AaEcR; GAL4-EcR DEF with VP16-RXR-USP chimera) (Aedes aegypti, UniProt P49880). The experiment in a line: Two-hybrid gene switch assay, luciferase reporter, wild-type AaEcR, mouse NIH3T3 cells. Format: cell-based.
The target of experiment [4] is BmEcR (GAL4-EcR DEF with VP16-RXR-USP chimera) (Bombyx mori, UniProt P49881). The experiment in a line: Two-hybrid gene switch assay, luciferase reporter, BmEcR, mouse NIH3T3 cells. Format: cell-based.
In experiment [5] the target is T3, AmaEcR (GAL4-EcR DEF with VP16-RXR-USP chimera) (Amblyomma americanum, UniProt O44338).
T3 sequence (O44338 255-570): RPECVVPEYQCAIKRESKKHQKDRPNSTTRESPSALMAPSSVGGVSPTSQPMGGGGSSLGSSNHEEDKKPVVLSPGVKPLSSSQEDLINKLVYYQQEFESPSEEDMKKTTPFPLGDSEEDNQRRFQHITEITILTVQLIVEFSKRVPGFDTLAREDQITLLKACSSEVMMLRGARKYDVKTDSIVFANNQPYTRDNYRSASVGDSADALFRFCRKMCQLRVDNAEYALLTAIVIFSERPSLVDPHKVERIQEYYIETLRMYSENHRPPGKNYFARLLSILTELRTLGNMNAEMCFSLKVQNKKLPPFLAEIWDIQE
T3 sequence (P28702 1-533 partner): T1 sequence (P28702 1-533 partner)
The experiment in a line: Two-hybrid gene switch assay, luciferase reporter, AmaEcR, mouse NIH3T3 cells.

Experiment [6] deals with T4, MsEcR (GAL4-EcR DEF with VP16-RXR-USP chimera) (Manduca sexta, UniProt P49883).
T4 sequence (P49883 1-556): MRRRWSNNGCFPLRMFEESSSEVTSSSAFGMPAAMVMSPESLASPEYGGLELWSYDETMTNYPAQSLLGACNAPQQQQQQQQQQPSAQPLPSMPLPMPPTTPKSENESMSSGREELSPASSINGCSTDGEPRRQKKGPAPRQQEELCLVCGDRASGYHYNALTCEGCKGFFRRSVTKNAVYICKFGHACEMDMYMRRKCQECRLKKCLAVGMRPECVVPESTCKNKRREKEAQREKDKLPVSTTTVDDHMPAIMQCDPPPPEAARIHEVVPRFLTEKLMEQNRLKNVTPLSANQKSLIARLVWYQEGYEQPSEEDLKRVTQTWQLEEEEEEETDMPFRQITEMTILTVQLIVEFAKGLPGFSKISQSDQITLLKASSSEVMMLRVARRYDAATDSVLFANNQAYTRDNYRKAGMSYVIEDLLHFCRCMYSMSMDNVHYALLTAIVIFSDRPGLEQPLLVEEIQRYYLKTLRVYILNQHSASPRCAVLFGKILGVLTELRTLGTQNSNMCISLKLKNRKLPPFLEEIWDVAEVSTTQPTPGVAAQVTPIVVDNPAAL
T4 sequence (P28702 1-533 partner): T1 sequence (P28702 1-533 partner)
The experiment in a line: Two-hybrid gene switch assay, luciferase reporter, MsEcR, mouse NIH3T3 cells.

Experiment [7] concerns NcEcR (GAL4-EcR DEF with VP16-RXR partner). The experiment in a line: Two-hybrid gene switch assay, luciferase reporter, NcEcR, mouse NIH3T3 cells.
Where [8] appears, read: EC50, FIG. 14A/14B, GAL4-EcR(DEF) with VP16-RXR-USP chimera.
The mark [9] stands for this setting: FIG. 14A/14B, GAL4-EcR(DEF) with VP16-RXR-USP chimera, read-out: EC50.
[10] abbreviates: EC50, FIG. 13A/13B, GAL4-EcR(DEF) with VP16-RXR-USP chimera.
[11] abbreviates: EC50, FIG. 16, GAL4-EcR (DEF) / VP16-RXR-USP chimera.
The mark [12] stands for this setting: EC50, FIG. 13A/13B, BmEcR, GAL4-EcR(DEF) with VP16-RXR-USP chimera.
Where [13] appears, read: EC50, FIG. 15, BmEcR, GAL4-EcR (DEF) / VP16-RXR-USP chimera.
Setting [14] is: EC50, FIG. 15, GAL4-EcR (DEF) / VP16-RXR-USP chimera.

Chain of wild-type Aedes aegypti EcR (AaEcR; GAL4-EcR DEF with VP16-RXR-USP chimera) (P49880 with tags, fused parts or gaps limits assumed, change not shown): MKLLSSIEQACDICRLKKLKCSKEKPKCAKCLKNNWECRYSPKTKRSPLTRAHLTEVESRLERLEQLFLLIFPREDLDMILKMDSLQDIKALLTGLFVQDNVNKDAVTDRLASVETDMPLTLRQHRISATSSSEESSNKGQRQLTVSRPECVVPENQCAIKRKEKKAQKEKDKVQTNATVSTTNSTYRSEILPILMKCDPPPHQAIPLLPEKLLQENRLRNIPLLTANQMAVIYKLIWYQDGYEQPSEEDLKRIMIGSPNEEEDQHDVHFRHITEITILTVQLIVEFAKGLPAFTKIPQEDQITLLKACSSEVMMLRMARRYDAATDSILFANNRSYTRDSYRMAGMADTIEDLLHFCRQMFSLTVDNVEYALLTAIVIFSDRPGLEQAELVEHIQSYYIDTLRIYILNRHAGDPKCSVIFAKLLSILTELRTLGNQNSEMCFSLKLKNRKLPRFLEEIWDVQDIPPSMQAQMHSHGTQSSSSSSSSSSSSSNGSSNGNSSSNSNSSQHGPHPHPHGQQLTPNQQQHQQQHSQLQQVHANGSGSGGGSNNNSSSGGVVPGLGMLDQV
Chain of BmEcR (GAL4-EcR DEF with VP16-RXR-USP chimera) (P49881 other isoform, or with tags, fused parts or gaps, change not shown): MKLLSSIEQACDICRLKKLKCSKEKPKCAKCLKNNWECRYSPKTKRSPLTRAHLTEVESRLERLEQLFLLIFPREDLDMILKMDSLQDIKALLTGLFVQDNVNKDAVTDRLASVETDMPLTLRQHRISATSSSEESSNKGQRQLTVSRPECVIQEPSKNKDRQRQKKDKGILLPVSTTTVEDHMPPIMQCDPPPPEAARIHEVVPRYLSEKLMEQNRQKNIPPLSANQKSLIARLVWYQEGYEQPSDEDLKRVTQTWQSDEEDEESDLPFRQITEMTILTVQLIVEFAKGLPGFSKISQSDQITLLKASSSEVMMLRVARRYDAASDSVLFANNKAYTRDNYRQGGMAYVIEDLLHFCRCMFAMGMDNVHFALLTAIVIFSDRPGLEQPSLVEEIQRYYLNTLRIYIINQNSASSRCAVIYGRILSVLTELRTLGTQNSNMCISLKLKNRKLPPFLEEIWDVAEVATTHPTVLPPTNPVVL

On to `CCC(CC(O)C(C)(O)C1CCC2(O)C3=CC(=O)C4CC(O)C(O)CC4(C)C3CCC12C)C(C)(C)O` (stereo not shown) [makisterone C], for which the half-maximal effective concentration (EC50) in experiment [1] was greater than 33 µM; in experiment [2] (setting [8]), roughly 3.3 µM; in experiment [3] (setting [9]), 1.02 µM; in experiment [4] (read-out: EC50) it was greater than 33 µM; in experiment [5] (setting [8]) it was roughly 2 µM; in experiment [6] (setting [10]), roughly 4 µM. The compound also showed a concentration giving a half-maximal response (EC50) in experiment [7] (FIG. 14A/14B, GAL4-EcR(DEF)) of roughly 0.1 µM.

With `CC1(C)OC(=O)C=C1CC(O)C(C)(O)C1CCC2(O)C3=CC(=O)C4CC(O)C(O)CC4(C)C3CCC12C` (stereo not shown) [carthamosterone], the EC50 in experiment [1] was greater than 33 µM; in experiment [2] (setting [8]), greater than 33 µM; in experiment [3] (setting [9]), roughly 15 µM; in experiment [4] (read-out: EC50), greater than 33 µM; in experiment [5] (setting [8]), roughly 20 µM; in experiment [6] (setting [10]), greater than 33 µM. The compound further had an EC50 in experiment [7] (FIG. 14A/14B, GAL4-EcR(DEF)) of roughly 10 µM.

On to `C[C@H]([C@H](O)CCC(C)(C)O)[C@H]1CC[C@@]2(O)C3=CC(=O)[C@@H]4C[C@@H](O)[C@@H](O)C[C@]4(C)[C@H]3CC[C@]12C` [ecdysone], for which the EC50 is greater than 33 µM in experiment [1]; greater than 33 µM in experiment [1] (FIG. 15, CfEcR, GAL4-EcR (DEF) / VP16-RXR-USP chimera); greater than 33 µM in experiment [2] (setting [8]); greater than 33 µM in experiment [2] (setting [11]); roughly 15 µM in experiment [3] (setting [8]); 3.43 µM in experiment [3] (setting [11]). Also, the EC50 in experiment [4] (setting [12]) was greater than 33 µM; in experiment [4] (setting [13]), greater than 33 µM; in experiment [5] (setting [8]), roughly 7 µM; in experiment [5] (setting [11]), greater than 33 µM; in experiment [6] (setting [10]), greater than 33 µM; in experiment [6] (setting [14]) it was greater than 33 µM. Also, the EC50 turned out to be 3.27 µM in experiment [7] (FIG. 14A/14B, GAL4-EcR(DEF)) and 2.52 µM in experiment [7] (FIG. 16, GAL4-EcR (DEF)).

With `CC(C(O)CCC(C)(C)O)C1CCC2(O)C3=CC(=O)C4CC(O)CCC4(C)C3CCC12C` (stereo not shown) [Compound 2-deoxyecdysone], the concentration for a half-maximal effect (EC50) was greater than 33 µM in experiment [1]; greater than 33 µM in experiment [2] (setting [8]); roughly 10 µM in experiment [3] (setting [9]); greater than 33 µM in experiment [4] (read-out: EC50); roughly 1 µM in experiment [5] (setting [8]); greater than 33 µM in experiment [6] (setting [10]). The compound also yielded an EC50 in experiment [7] (FIG. 14A/14B, GAL4-EcR(DEF)) of roughly 6 µM.

As to `CC(C)(O)CC[C@@H](O)[C@](C)(O)[C@H]1CC[C@@]2(O)C3=CC(=O)[C@]4(O)C[C@@H](O)[C@@H](O)C[C@]4(C)[C@H]3CC[C@]12C` [polypodine B], the EC50 in experiment [1] is roughly 20 µM; in experiment [2] (setting [8]) it was roughly 3.3 µM; in experiment [3] (setting [8]), 0.173 µM; in experiment [3] (setting [11]), 0.05 µM; in experiment [4] (setting [12]), roughly 8 µM; in experiment [4] (setting [13]) it was roughly 9 µM. The EC50 was roughly 3.3 µM in experiment [5] (setting [8]); roughly 0.3 µM in experiment [5] (setting [11]); roughly 2 µM in experiment [6] (setting [10]); 4.35 µM in experiment [6] (setting [14]); roughly 0.1 µM in experiment [7] (FIG. 14A/14B, GAL4-EcR(DEF)); 0.05 µM in experiment [7] (FIG. 16, GAL4-EcR (DEF)).

Turning to `CCCCCCCCCC(=O)OC1CC2(C)C(C(C)(O)C(O)CCC(C)(C)O)CCC2(O)C2=CC(=O)C3CC(O)C(O)CC3(C)C21` (stereo not shown) [turkesterone-11a-decanoate], the EC50 in experiment [1], in experiment [2] (setting [8]), in experiment [3] (setting [8]), in experiment [4] (setting [12]), in experiment [5] (setting [8]) and in experiment [6] (setting [10]) was greater than 33 µM each time. This compound yielded a concentration giving a half-maximal response (EC50) in experiment [7] (FIG. 14A/14B, GAL4-EcR(DEF)) greater than 33 µM.

Take `C[C@@H](CO)CC[C@@H](O)[C@](C)(O)[C@H]1CC[C@@]2(O)C3=CC(=O)[C@@H]4C[C@@H](O)[C@@H](O)C[C@]4(C)[C@H]3CC[C@]12C` [(25R)-inokosterone]: the 50% effective concentration (EC50) in experiment [1] was greater than 33 µM; in experiment [2] (setting [8]), roughly 10 µM; in experiment [3] (setting [9]) it was roughly 2.5 µM; in experiment [4] (read-out: EC50), greater than 33 µM; in experiment [5] (setting [8]), roughly 3.3 µM; in experiment [6] (setting [10]) it was roughly 10 µM. Also, a half-maximal effect in experiment [7] (FIG. 14A/14B, GAL4-EcR(DEF)) (EC50) was put at 0.867 µM.

With `C[C@@H]1C(=O)O[C@H](C)[C@H]1C[C@@H](O)[C@](C)(O)[C@H]1CC[C@@]2(O)C3=CC(=O)[C@@H]4C[C@@H](O)[C@@H](O)C[C@]4(C)[C@H]3CC[C@]12C` [cyasterone], the EC50 in experiment [1] is roughly 1 µM; in experiment [2] (setting [8]), roughly 10 µM; in experiment [3] (setting [9]), 3 µM; in experiment [5] (setting [8]) it was roughly 0.3 µM; in experiment [6] (setting [10]) it was 1.53 µM; in experiment [7] (FIG. 14A/14B, GAL4-EcR(DEF)), 1.82 µM.
